Read-outs that look alike come from different tables or passages of the source.

Holding throughout (assay type): in vivo
Experiment [1] deals with mice. The procedure:
For the treated mice, one of the two CB2 receptor-selective agonist solutions: either CB2 agonist2 solution or H-308 solution, was administered by intravenous administration to mice pups to induce ADHD-like behavior and/or obsessive-compulsive-like behavior as a murine model for ADHD and OCD. […] In order to test the effect of non-agonist or mixed-type agonist/inverse agonist CB2 receptor ligands on hyperactivity, the effects of M1 were studied.
Open-Field Test (Crossing and Rearing, Defecation, Grooming)
Mice were assessed for hyperactive behavior on postnatal days 16-20, 26-39, at age 13 weeks and at age 23 weeks. Mice were placed in the center of a transparent glass cage 30×40×31 cm divided into squares of 7.5×7.5 cm. The number of squares crossed and the rearing activity were evaluated for 8 min.

The subject of experiment [2] is mice. Put plainly: Prepulse inhibition (PPI) of the startle reflex. The procedure:
Attention Test: Prepulse Inhibition (PPI) of the Startle Reflex
A weak audible stimulus (74-90 dB tone) “prepulse” was used to inhibit the acoustic startle response to a subsequent strong audible stimulus (120 dB tone) “pulse”. Reduced prepulse inhibition of the startle reflex (PPI) was taken as an index of the positive symptoms of deficits in attention.
PPI was assessed similarly to the method described by Varty et al. (2001). Mice were placed in a startle chamber and allowed to acclimatize for 5 minutes A loudspeaker produced startling “pulse” at 120 dB and thereafter 65 dB background white noise or one of […] 20 ms duration “prepulses” at 74, 78, 82, 86, and 90 dB followed after 20 ms by a 40 ms startling “pulse” at 120 dB. The response of each mouse was recorded and stored by a computer. Each test session lasted for 11 minutes and consisted of 5 presentations of each of the prepulse/pulse sound stimuli (total of 30 or 35) presented in random order and separated by 15 second intervals. The magnitude of prepulse inhibition was calculated as percentage PPI=[1-(acoustic startle for prepulse+pulse)/(acoustic startle for pulse alone)]×100.

Experiment [3] concerns mice. Put plainly: Motor tics in the open field test.
The subject of experiment [4] is mice. Put plainly: Impulsivity, Elevated Plus Maze. The following applies: age 13 weeks, postnatal CB2 agonist2 5 mg/kg. As for the experimental part: The treatment consisted of a single intravenous administration of the vehicle or the M1 solution Impulsivity was tested 24 hours after treatment.
Impulsivity as measured by the paucity of time spent on the two anxiety-provoking, open arms (as opposed to the two enclosed arms) of an “Elevated Plus Maze” was used as a parameter of negative symptoms of schizophrenia (Josselyn and Vaccarino, 1998). The plus maze was elevated 50 cm above the table top. Behavior of each mouse was recorded for 5 minutes by a video camera and scored using the “EthoVision” software (Noldus), measuring the number of entries as well as the amount of time spent in each arm, open or closed. Reduced time spent in the closed arms indicated reduced anxiety. Increased time spent in the opened arms indicated increased risk behavior (hyperactive and impulsive).
The treatment consisted of a single i.p. administration of the vehicle or the M1 solution. The duration ratio open arm/close arm and the frequency ratio open arm/close arm in the Elevated Plus Maze were evaluated 24 hours after treatment with either vehicle or M1.

Experiment [5] concerns mice. Put plainly: Vocal tics, ultrasonic voice recording. As for the experimental part:
Mice were recorded at the age of 13 or 23-25 weeks with an ultrasonic voice recorder (Noldus). Mice were recorded at the age of 29 days with an ultrasonic voice recorder (AviSoft). Single mice were recorded in a cage for 10 min (according to sex and type of treatment). The number and duration of events at 20-40 kHz and at 50-70 kHz were analyzed. In some experiments, 24 h following M1 treatment, each mouse was recorded for 10 min before and after stress. Stress was induced by incubation for 10-15 min in a mouse restrainer.

As to `CCCCCCC(C)(C)c1cc(OC)c([C@@H]2C=C(CO)[C@@H]3C[C@H]2C3(C)C)c(OC)c1` [HU-308, [(1R,2R,5R)-2-[2,6-dimethoxy-4-(2-methyloctan-2-yl)phenyl]-7,7-dimethyl-4-bicyclo[3.1.1]hept-3-enyl]methanol], the hyperactivity entry in experiment [1] (age of 3 months, 0.1 mg/kg HU-308, M1 5 mg/kg in gavage 30 minutes before the experiment, FIGS. 17A-B) is “induced”. For the same molecule, the ambulation result in experiment [1] (open field test at postnatal days 16-19, 5 mg/kg HU-308 at postnatal days 5-13, FIG. 2A) is “increased”. Further, the rearing entry in experiment [1] (open field test at postnatal days 16-19, 5 mg/kg HU-308 at postnatal days 5-13, FIG. 2B) is “increased”. Moreover, the percent pre-pulse inhibition result in experiment [2] (female mice injected with HU-308 at postnatal days 5-13, FIG. 3D) is recorded as “decreased”; in experiment [2] (male mice injected with HU-308 at postnatal days 5-13, FIG. 3C) it was “decreased”. In addition, in experiment [3] (HU-308 5 mg/kg during postnatal days 5-13, age of 12 weeks, open field test), the “abnormal motor tics/head twitches” value is reported as “induced”. The “Number of tics, Total” value in experiment [3] (HU-308 5 mg/kg postnatal days 5-13, age 12 weeks, total over the recording) is reported as 18.

In the case of `C=C1CC/C=C(\C)CC[C@@H]2[C@@H]1CC2(C)C` [CB2 agonist2, beta-caryophyllene], the grooming result in experiment [1] (CB2 agonist2 0.5 mg/kg at the age of 3-15 days, M1 5 mg/kg on day 29, measured on day 39, stressed female mice, FIG. 13A) is “increased”. Also, the feces secretion result in experiment [1] (CB2 agonist2 0.5 mg/kg at the age of 3-15 days, M1 5 mg/kg on day 29, measured on day 39, stressed female mice, FIG. 13B) is recorded as “increased”. The rearing result in experiment [1] (CB2 agonist2 0.5 mg/kg at the age of 3-15 days, M1 on day 29, measured on day 36, unstressed female mice, FIG. 12A) is “increased”; in experiment [1] (CB2 agonist2 0.5 mg/kg at the age of 3-15 days, measured on day 26, unstressed females, FIG. 11C) it was “increased”; in experiment [1] (model mice 5 mg/kg CB2 agonist2 postnatal days 1-5, M1 5 mg/kg single i.p. at 13 weeks, 30 minutes after treatment, FIG. 5B) it was “increase”; in experiment [1] (open field test at postnatal days 16-19, 5 mg/kg CB2 agonist2 at postnatal days 5-13, FIG. 1B), “increased”; in experiment [1] (open field test at postnatal days 16-19, 10 mg/kg CB2 agonist2 at postnatal days 5-13, FIG. 1D) it was “increased”. In addition, the ambulation entry is recorded as “increased” in experiment [1] (CB2 agonist2 0.5 mg/kg at the age of 3-15 days, M1 on day 29, measured on day 39, stressed female mice, FIG. 12B); “increased” in experiment [1] (CB2 agonist2 0.5 mg/kg at the age of 3-15 days, measured on day 26, unstressed females, FIG. 11A); “increase” in experiment [1] (model mice 5 mg/kg CB2 agonist2 postnatal days 1-5, M1 5 mg/kg single i.p. at 13 weeks, 30 minutes after treatment, FIG. 5A); “increased” in experiment [1] (open field test at postnatal days 16-19, 5 mg/kg CB2 agonist2 at postnatal days 5-13, FIG. 1A); “increased” in experiment [1] (open field test at postnatal days 16-19, 10 mg/kg CB2 agonist2 at postnatal days 5-13, FIG. 1C). Further, the secretion of feces result in experiment [1] (model mice 5 mg/kg CB2 agonist2 postnatal days 5-13, M1 5 mg/kg single i.p. at 23 weeks, FIG. 4C) is reported as “decreased”. Also, the grooming duration result in experiment [1] (model mice 5 mg/kg CB2 agonist2 postnatal days 5-13, M1 5 mg/kg single i.p. at 23 weeks, tested 48 hours after treatment, FIG. 4A) was “increased”. The grooming frequency result in experiment [1] (model mice 5 mg/kg CB2 agonist2 postnatal days 5-13, M1 5 mg/kg single i.p. at 23 weeks, tested 48 hours after treatment, FIG. 4B) is listed as “increased”. Further, the percent pre-pulse inhibition result in experiment [2] (female mice treated with CB2 agonist2 at postnatal days 5-13, FIG. 3B) is “decreased”. Besides, the acoustic startle result in experiment [2] (model mice vs control mice at the age of 8 weeks, FIG. 3A) is “not significantly different”. Further, the “ratio of duration in the open arm/close arm” value in experiment [4] (females, FIG. 6A) is “increased”; in experiment [4] (males+females, FIG. 6B) it was “increased”. The “number of vocal events” value in experiment [5] (20-40 KHz, day 29, female mice, CB2 agonist2 0.5 mg/kg at the age of 3-15 days, M1 5 mg/kg on day 29, FIG. 14A) is “increased”; in experiment [5] (female mice 23-25 weeks, 20-40 KHz, stress, CB2 agonist2 5 mg/kg postnatal days 5-13, M1 given to model mice, FIG. 7A), “increased”; in experiment [5] (female mice 23-25 weeks, 50-70 KHz, stress, CB2 agonist2 5 mg/kg postnatal days 5-13, M1 given to model mice, FIG. 8A), “increased”. In experiment [5] (20-40 KHz, day 29, female mice, CB2 agonist2 0.5 mg/kg at the age of 3-15 days, M1 5 mg/kg on day 29, FIG. 14B), the duration of vocals entry is reported as “increased”. The “total duration of vocal events” value in experiment [5] (female mice 23-25 weeks, 20-40 KHz, stress, CB2 agonist2 5 mg/kg postnatal days 5-13, M1 given to model mice, FIG. 7B) was “increased”; in experiment [5] (female mice 23-25 weeks, 50-70 KHz, stress, CB2 agonist2 5 mg/kg postnatal days 5-13, M1 given to model mice, FIG. 8B), “increased”; in experiment [5] (male mice 23-25 weeks, 20-40 KHz, before stress, CB2 agonist2 5 mg/kg postnatal days 5-13, M1 given to model mice, FIG. 9A), “increased”; in experiment [5] (male mice 23-25 weeks, 50-70 KHz, before stress, CB2 agonist2 5 mg/kg postnatal days 5-13, M1 given to model mice, FIG. 10A) it was “increased”. Moreover, the “mean duration of vocal events” value is “increased” in experiment [5] (female mice 23-25 weeks, 20-40 KHz, stress, CB2 agonist2 5 mg/kg postnatal days 5-13, M1 given to model mice, FIG. 7C); “increased” in experiment [5] (female mice 23-25 weeks, 50-70 KHz, stress, CB2 agonist2 5 mg/kg postnatal days 5-13, M1 given to model mice, FIG. 8C); “increased” in experiment [5] (male mice 23-25 weeks, 20-40 KHz, before stress, CB2 agonist2 5 mg/kg postnatal days 5-13, M1 given to model mice, FIG. 9B); “increased” in experiment [5] (male mice 23-25 weeks, 50-70 KHz, before stress, CB2 agonist2 5 mg/kg postnatal days 5-13, M1 given to model mice, FIG. 10B).

(Values after patent US10016373B2, “CB2 receptor ligands for the treatment of psychiatric disorders” (priority 2013, dated 2018).)
